Laboratory results as given in ChEMBL document CHEMBL3301361, “Experimental in vitro DMPK and physicochemical data on a set of publicly disclosed compounds”.
In brackets after ≈: the same amount, converted by molar mass.

Key:
[1] = physchem; conditions: pH 7.4 buffer
[2] = in vitro; conditions: human
[3] = physchem; conditions: octan-1-ol/water

solubility thermodynamic [1]	microsomal CLint ([2]; liver microsomes)	logD ([3]; pH 7.4, LogD7.4)	microsomal CLint ([2]; microsomes)	logD ([3]; pH 7.4)	SMILES
38.9 µM (≈ 16.1 µg/mL)	5 µL/min/mg				CN(C)CC(O)COc1ccc(Nc2ncc(Cl)c(Nc3ccccc3)n2)cc1 (stereo not given)
4.4 µM (≈ 1.64 µg/mL)	18 µL/min/mg	3.1			Cc1ccc(F)c(Nc2ccnc(Nc3ccc(S(N)(=O)=O)cc3)n2)c1
		1.56	6 µL/min/mg		N#Cc1c(-c2ccccc2)nc(SCc2ccccc2)[nH]c1=O
		4.17	6 µL/min/mg		CCCCc1nc2c(N)nc3ccccc3c2n1Cc1ccccc1
24 µM (≈ 11.8 µg/mL)	6 µL/min/mg				CCN(C(=O)NCc1c(F)cccc1F)C1CCN(CCC(c2ccccc2)c2ccccc2)CC1
1.9 µM (≈ 0.508 µg/mL)		2.5	53.7 µL/min/mg		O=c1[nH]c(-c2ccc([N+](=O)[O-])cc2)nc2ccccc12
	< 3 µL/min/mg	1.1			CCCC1CCCCC(N)=N1 (stereo not given)
	3 µL/min/mg	1.8			Nc1nnc(-c2ccccc2)s1
	< 3 µL/min/mg	0.08			CC(C)C[C@H](NC(=O)N1CCOCC1)C(=O)NCC#N
		4.31	35 µL/min/mg		C(#Cc1n[nH]c2ccccc12)c1ccccc1
		0.15	< 3 µL/min/mg		Cc1ccc(C#N)cc1-c1cc(C(F)(F)F)ccc1OCC(=O)O
		1.26	8.5 µL/min/mg		O=C(NCC1CCCCC1)c1cc(-n2ncc(=O)[nH]c2=O)ccc1Cl
	< 3 µL/min/mg	0.91			N#Cc1cc(Cl)ccc1O[C@H](CCN)c1ccccc1
129 µM (≈ 57.3 µg/mL)	< 3 µL/min/mg				CN(C(=O)Cc1ccc(F)cc1)C1CCN(CCC(c2ccccc2)c2ccccc2)CC1
	68 µL/min/mg	0.86			CCc1ccc(CCNCCCSCCNC[C@H](O)c2ccc(O)c3[nH]c(=O)sc23)cc1
	20 µL/min/mg	1.06			O=c1[nH]c2c(O)ccc([C@@H](O)CNCCCSCCNCCc3cccc(Cl)c3)c2s1
	35 µL/min/mg	1.74			O=c1[nH]c2c(O)ccc([C@@H](O)CNCCCSCCNCCc3cccc(Cl)c3Cl)c2s1
282 µM (≈ 150 µg/mL)	< 3 µL/min/mg	2.86			CCN(C(=O)NCc1ccc(S(C)(=O)=O)cc1)C1CCN(CCC(c2ccccc2)c2ccccc2)CC1
324 µM (≈ 157 µg/mL)	112 µL/min/mg	3.4			COc1ccc(CC(=O)N(C)C2CCN(CCC(c3ccccc3)c3ccccc3)CC2)cc1OC
17 µM (≈ 4.44 µg/mL)	27 µL/min/mg	2.43			NC(=O)Nc1cc(-c2ccccc2)sc1C(N)=O
4.3 µM (≈ 1.94 µg/mL)	75 µL/min/mg	2.63			CC(=O)Nc1ccc(CNc2[nH]nc3cccc(Oc4ccc(S(C)(=O)=O)cc4)c23)cc1
0.7 µM (≈ 0.317 µg/mL)	83 µL/min/mg				CSc1nccc(Nc2cc(NC(=O)c3cc(F)cc(N4CCOCC4)c3)ccc2C)n1
2.2 µM (≈ 0.998 µg/mL)	103 µL/min/mg	3.71			COc1ccc(OC)c(CNc2[nH]nc3cccc(Oc4ccc(S(C)(=O)=O)cc4)c23)c1

solubility thermodynamic [1]	microsomal CLint ([2]; liver microsomes)	logD ([3]; pH 7.4, LogD7.4)	microsomal CLint ([2]; microsomes)	logD ([3]; pH 7.4)	SMILES
		0.79	< 3 µL/min/mg		Cc1c(Sc2ccc(Cl)cc2)c2ccc(S(C)(=O)=O)cc2n1CC(=O)O
	< 3 µL/min/mg	-0.89			CNC(=O)c1cccc2c1c(Sc1ccc(Cl)cc1)c(C)n2CC(=O)O
	3 µL/min/mg	0.05			Cc1ccc2c(c1)c([S+]([O-])c1ccc(Cl)cc1)c(C)n2CC(=O)O (stereo not given)
		0.15	22 µL/min/mg		COc1ccccc1CNCc1ccc(CCNC[C@H](O)c2ccc(O)c3[nH]c(=O)sc23)cc1
	56 µL/min/mg	0.91			COc1ccccc1CNCCc1cccc(CCNC[C@H](O)c2ccc(O)c3[nH]c(=O)sc23)c1
288 µM (≈ 190 µg/mL)	18 µL/min/mg				CCN(C(=O)Cc1ccc(S(C)(=O)=O)cc1)C1CCN(CC[C@@H](c2ccccc2)N2CCN(S(=O)(=O)C(F)(F)F)CC2)CC1
75.9 µM (≈ 40.4 µg/mL)	66 µL/min/mg				CCN(C(=O)Cc1ccc(S(C)(=O)=O)cc1)C1CCN(CCC(c2ccccc2)c2ccc(C)cc2)CC1 (stereo not given)
174 µM (≈ 106 µg/mL)	< 3 µL/min/mg	1.84			CCN(C(=O)Cc1ccc(S(C)(=O)=O)cc1)C1CCN(CCC(c2ccccc2)c2ccc(NS(C)(=O)=O)cc2)CC1 (stereo not given)
692 µM (≈ 398 µg/mL)	< 3 µL/min/mg	2.09			CCN(C(=O)Cc1ccc(S(C)(=O)=O)cc1)C1CCN(CCC(c2ccccc2)c2ccc(NC(C)=O)cc2)CC1 (stereo not given)
	< 3 µL/min/mg	-0.2			O=C(O)CSCC(=O)Nc1nc(-c2ccc(F)cc2)cs1
75.9 µM (≈ 36.7 µg/mL)	7 µL/min/mg	2.93			COc1ccccc1C(=O)Nc1ccc(C)c(-n2cnc3ccc(N4CCN(C)CC4)cc3c2=O)c1
219 µM (≈ 106 µg/mL)	16 µL/min/mg	3.08			COc1cccc(C(=O)Nc2ccc(C)c(-n3cnc4ccc(N5CCN(C)CC5)cc4c3=O)c2)c1
933 µM (≈ 440 µg/mL)		2.75	3 µL/min/mg		Cc1ccc(NC(=O)c2ccccc2F)cc1-n1cnc2ccc(N3CCN(C)CC3)cc2c1=O
537 µM (≈ 247 µg/mL)		2.11	< 3 µL/min/mg		Cc1ccc(NC(=O)c2cncs2)cc1-n1cnc2ccc(N3CCN(C)CC3)cc2c1=O
91.2 µM (≈ 42 µg/mL)	7 µL/min/mg	2.56			Cc1ccc(C(=O)Nc2nccs2)cc1-n1cnc2ccc(N3CCN(C)CC3)cc2c1=O
	< 3 µL/min/mg	1.56			Cc1ccc(C(=O)NC(C)C)cc1-n1cnc2ccc(N3CCN(C)CC3)cc2c1=O
	5 µL/min/mg	0.49			COc1cccc2c(-c3c(C)n(CC(=O)O)c4ccc(C)cc34)ccnc12
	< 3 µL/min/mg	0.52			Cc1ccc2c(c1)c(-c1ccnc3c(C#N)cccc13)c(C)n2CC(=O)O
	6 µL/min/mg	1.79			Cc1ccc(S(=O)(=O)NC(=O)N2CCC(N3CCC(Oc4ccc(Cl)cc4C)CC3)CC2)cc1
	< 3 µL/min/mg	0.75			Cc1ccc(S(=O)(=O)NC(=O)N2CCC(N3CCC(Oc4ccc(F)c(F)c4)CC3)CC2)cc1
		4.46	< 3 µL/min/mg		O=C(NC[C@@H](O)CN1CCC(Oc2ccc(Cl)c(Cl)c2)CC1)n1c(=O)[nH]c2ccccc21
4.6 µM (≈ 1.83 µg/mL)	11.2 µL/min/mg				CS(=O)(=O)C1(c2cc(N3CCOCC3)nc(-c3cccc4[nH]ccc34)n2)CC1
0.3 µM (≈ 0.153 µg/mL)			< 3 µL/min/mg	4.06	OC[C@H]1C[C@@H](n2nnc3c(N[C@@H]4C[C@H]4c4ccccc4)nc(SCCC(F)(F)F)nc32)[C@H](O)[C@@H]1O

solubility thermodynamic [1]	microsomal CLint ([2]; liver microsomes)	logD ([3]; pH 7.4, LogD7.4)	microsomal CLint ([2]; microsomes)	logD ([3]; pH 7.4)	SMILES
1 µM (≈ 0.487 µg/mL)	< 3 µL/min/mg	3.87			CCCSc1nc(N[C@@H]2C[C@H]2c2ccccc2)c2nnn([C@@H]3C[C@H](OCCO)[C@@H](O)[C@H]3O)c2n1
1 µM (≈ 0.361 µg/mL)		4.41	14 µL/min/mg		CC(C)Cn1c(=O)n(C)c(=O)c2cn(Cc3cccc4ccccc34)cc21
	69 µL/min/mg	4.05			O=C(NCC12CC3CC(CC(C3)C1)C2)c1ccccc1Cl
	8 µL/min/mg	0.94			CC1CN(C(=O)c2cc3ccccc3[nH]2)CCN1 (stereo not given)
	13 µL/min/mg	4.1			CCN(C(=O)Cc1ccc([N+](=O)[O-])cc1)C1CCN(CCC(c2ccccc2)c2ccccc2)CC1
100 µM (≈ 61.8 µg/mL)	< 3 µL/min/mg	2.98			CCN(C(=O)Cc1ccc(S(C)(=O)=O)cc1)C1CCN(CCC(c2ccccc2)c2ccc(NC(=O)C(C)(C)C)cc2)CC1 (stereo not given)
0.9 µM (≈ 0.362 µg/mL)	15 µL/min/mg	3.6			COc1cc2ncnc(Nc3ccc(OCc4ccccn4)c(C)c3)c2cc1OC
	23 µL/min/mg	1.78			Cc1ccc2c(c1)c(-c1ccnc3ccc(C(F)(F)F)cc13)c(C)n2CC(=O)O
		1.73	3 µL/min/mg		Cc1nc(CSc2nc(N[C@H](C)CO)c3sc(N)nc3n2)cs1
	< 3 µL/min/mg	1.16			CCO[C@@H]1OC(=O)C[C@@H]1NC(=O)[C@@H]1CCCN2C(=O)CC[C@H](NC(=O)c3nccc4ccccc34)C(=O)N12
	3 µL/min/mg	0.87			COCCNCc1ccc(-c2cc(C(N)=O)c(NC(N)=O)s2)cc1
	6 µL/min/mg	0.64			CN(C)CCCOc1ccc(-c2cc(C(N)=O)c(NC(N)=O)s2)cc1
1.3 µM (≈ 0.364 µg/mL)	7 µL/min/mg				Fc1cnc(Nc2ccccc2)nc1Nc1ccccc1
	21 µL/min/mg	4.03			O=C(CC12CC3CC(CC(C3)C1)C2)Nc1ccc2[nH]ncc2c1
1.5 µM (≈ 0.637 µg/mL)	> 150 µL/min/mg	3.46			CN(CCOc1ccccc1-c1cc(C(N)=O)c(NC(N)=O)s1)Cc1ccccc1
		1.19	41 µL/min/mg		NC1CCN(c2nccc(C(=O)NCC34CC5CC(CC(C5)C3)C4)c2Cl)CC1
	33 µL/min/mg	1.18			Cc1ccc2nc(CCNCCCO)ccc2c1NC(=O)CC12CC3CC(CC(C3)C1)C2
	4 µL/min/mg	0.74			N=C(N)c1cc2c(I)cccc2s1
		3.48	34.7 µL/min/mg		Cc1cc2c(C(=O)NC[C@H](C)c3ccccc3)c(O)c(O)cc2c(O)c1-c1c(C)cc2c(C(=O)NC[C@H](C)c3ccccc3)c(O)c(O)cc2c1O [1,1',6,6',7,7'-HEXAHYDROXY-3,3'-DIMETHYL-N5-((R)-2-PHENYLPROPYL)-N5'-((R)-2-PHENYLPROPYL)-2,2'-BINAPHTHYL-5,5'-DICARBOXAMIDE (ATROPISOMERIC MIX)]
		0.88	< 3 µL/min/mg		Nc1ccc(S(=O)(=O)c2ccc(N)cc2)cc1 [DAPSONE]
		1.89	9 µL/min/mg		Cc1cccc(Nc2ccccc2C(=O)O)c1C [MEFENAMIC ACID]

SMILES	solubility thermodynamic [1]	microsomal CLint ([2]; liver microsomes)	logD ([3]; pH 7.4, LogD7.4)	microsomal CLint ([2]; microsomes)	logD ([3]; pH 7.4)
CC1CN(S(=O)(=O)c2ccccc2)CCN1Cc1cc(Cl)ccc1OCC(=O)O (stereo not given)			0.69	< 3 µL/min/mg	
C[C@H]1CN(Cc2cc(Cl)ccc2OC(C)(C)C(=O)O)CCN1S(=O)(=O)c1ccccc1			0.54	< 3 µL/min/mg	
c1ccc2c(c1)[nH]c1cnccc12 [NORHARMANE]	339 µM (≈ 57 µg/mL)	89 µL/min/mg			
